In US12692254B2, “Benzimidazole inhibitors of PAD enzymes” (BRISTOL-MYERS SQUIBB COMPANY, priority 2018, dated 2026):
pIC50: −log10 of the molar value.

biological target: human PAD4 (hPAD4) (Homo sapiens, UniProt Q9UM07); assay: RFMS human PAD4 functional assay (rapid-fire mass spectrum); assay type: biochemical; conditions: 5 nM hPAD4 enzyme, 250 μM BAEE, 50 μM Calcium; 30 min preincubation, 90 min reaction at 37° C.
Method in brief: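 PAD4 (10 nM) preincubated 30 min with compound (top final 50 μM), then BAEE substrate added in pH 7.5 HEPES buffer with DTT, 50 μM calcium, TPEN; 90 min at 37° C. After TCA quench, citrulline derivatized with phenyl glyoxal (4 mM final, 30 min, 37° C) and quantified by RapidFire MS against internal standard.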

human PAD4 (hPAD4), sequence (Q9UM07 whole entry): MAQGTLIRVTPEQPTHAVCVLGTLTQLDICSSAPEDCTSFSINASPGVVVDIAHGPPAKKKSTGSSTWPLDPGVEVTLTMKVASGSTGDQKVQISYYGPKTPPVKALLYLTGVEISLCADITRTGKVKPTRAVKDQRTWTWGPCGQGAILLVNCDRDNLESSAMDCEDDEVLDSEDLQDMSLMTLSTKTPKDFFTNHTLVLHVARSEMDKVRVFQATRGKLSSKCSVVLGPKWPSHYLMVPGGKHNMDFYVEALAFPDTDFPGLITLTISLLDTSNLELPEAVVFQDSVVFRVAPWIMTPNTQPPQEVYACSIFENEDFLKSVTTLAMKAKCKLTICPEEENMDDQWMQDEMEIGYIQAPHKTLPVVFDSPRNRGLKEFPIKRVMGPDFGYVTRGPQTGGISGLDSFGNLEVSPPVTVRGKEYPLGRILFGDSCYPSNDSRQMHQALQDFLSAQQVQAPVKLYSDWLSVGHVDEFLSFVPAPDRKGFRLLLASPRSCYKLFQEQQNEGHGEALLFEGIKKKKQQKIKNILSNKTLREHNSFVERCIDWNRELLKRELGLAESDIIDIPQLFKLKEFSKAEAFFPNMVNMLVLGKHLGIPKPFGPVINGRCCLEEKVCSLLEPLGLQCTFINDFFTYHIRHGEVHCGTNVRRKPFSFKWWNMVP

Structure (SMILES) | pIC50
COc1cc(C(=O)N2C[C@H]3CC[C@@H]2[C@@H]3N)cc2nc(-c3cc4ccc(Cl)cc4n3CC3CC3)n(CC3CN(c4ccnc(C5CC5)n4)C3)c12 [Example 53, (1R,4R,7R)-2-{2-[6-chloro-1-(cyclopropylmethyl)-1H-indol-2-yl]-1-{[1-(2-cyclopropylpyrimidin-4-yl)azetidin-3-yl]methyl}-7-methoxy-1H-1,3-benzodiazole-5-carbonyl}-2-azabicyclo[2.2.1]heptan-7-amine] | 6.80
COc1cc(C(=O)N2CCC[C@@H](N)C2)cc2nc(-c3cc4ccccc4n3CC3CC3)n(CC3CN(C(=O)c4ccc(C#N)cc4)C3)c12 [Example 180, 4-[3-({5-[(3R)-3-aminopiperidine-1-carbonyl]-2-[1-(cyclopropylmethyl)-1H-indol-2-yl]-7-methoxy-1H-1,3-benzodiazol-1-yl}methyl)azetidine-1-carbonyl]benzonitrile] | 7.02
COc1cc(C(=O)N2C[C@H]3CC[C@@H]2[C@@H]3N)cc2nc(-c3cc4cc(Cl)ccc4n3C)n(CC3CN(c4cncc(C#N)c4)C3)c12 [Example 58, 5-[3-({5-[(1R,4R,7R)-7-amino-2-azabicyclo[2.2.1]heptane-2-carbonyl]-2-(5-chloro-1-methyl-1H-indol-2-yl)-7-methoxy-1H-1,3-benzodiazol-1-yl}methyl)azetidin-1-yl]pyridine-3-carbonitrile] | 6.77
COc1cc(C(=O)N2C[C@H](N)C[C@@H](F)C2)cc2nc(-c3cc4ccccc4n3CC3CC3)n(Cc3ccon3)c12 [Example 278, (3R,5R)-1-{2-[1-(cyclopropylmethyl)-1H-indol-2-yl]-7-methoxy-1-[(1,2-oxazol-3-yl)methyl]-1H-1,3-benzodiazole-5-carbonyl)-5-fluoropiperidin-3-amine] | 6.34
COc1cc(C(=O)N2CC3CCC2[C@@H]3N)cc2nc(-c3cc4cccnc4n3CC3CC3)n(CC3CN(C(=O)c4cccc(F)c4)C3)c12 (stereo partly drawn) [Example 464, (7R)-2-{2-[1-(cyclopropylmethyl)-1H-pyrrolo[2,3-b]pyridin-2-yl]-1-{[1-(3-fluorobenzoyl)azetidin-3-yl]methyl}-7-methoxy-1H-1,3-benzodiazole-5-carbonyl}-2-azabicyclo[2.2.1]heptan-7-amine] | 7.12
COc1cc(C(=O)N2C[C@H]3CC[C@@H]2[C@@H]3N)cc2nc(-c3cc4cccnc4n3CC3CC3)n(C3CN(C(=O)c4ccnc(Cl)c4)C3)c12 [Example 98, (1R,4R,7R)-2-{1-[1-(2-chloropyridine-4-carbonyl)azetidin-3-yl]-2-[1-(cyclopropylmethyl)-1H-pyrrolo[2,3-b]pyridin-2-yl]-7-methoxy-1H-1,3-benzodiazole-5-carbonyl}-2-azabicyclo[2.2.1]heptan-7-amine] | 7.15
COc1cc(C(=O)N2CC3CCC2[C@@H]3N)cc2nc(-c3cc4cccnc4n3CC3CC3)n(C[C@@H]3CCN(c4nccnc4C#N)C3)c12 (stereo partly drawn) [Example 212, 3-[(3R)-3-({5-[(1R,4R,7R)-7-amino-2-azabicyclo[2.2.1]heptane-2-carbonyl]-2-[1-(cyclopropylmethyl)-1H-pyrrolo[2,3-b]pyridin-2-yl]-7-methoxy-1H-1,3-benzodiazol-1-yl}methyl)pyrrolidin-1-yl]pyrazine-2-carbonitrite] | 7.09
COc1cc(C(=O)N2CC3CCC2[C@@H]3N)cc2nc(-c3cc4cccnc4n3CC3CC3)n(CC3CCN(c4ccnc(C#N)n4)CC3)c12 (stereo partly drawn) [Example 218, 4-[4-({5-[(1R,4R.,7R)-7-amino-2-azabicyclo[2.2.1]heptane020 carbonyl]-2-[1-(cyclopropylmethyl)-1H-pyrrolo[2,3-b]pyridin-2-yl]-7-methoxy-1H-1,3-benzodiazol-1-yl}methyl)piperidin-1-yl]pyrimidin-2-carbonitrile] | 7.06
COc1cc(C(=O)N2CC3CCC2[C@@H]3N)cc2nc(-c3cc4cccnc4n3CC3CC3)n(C3CCN(C(=O)c4ccnc(Cl)c4)CC3)c12 (stereo partly drawn) [Example 239, (1R,4R.,7R)-2-{1-[1-(2-chloropyridine-4-carbonyl)piperidin-4-yl]-2-[1-(cyclopropylmethyl)-1H-pyrrolo[2,3-b]pyridin-2-yl]-7-methoxy-1H-1,3-benzodiazole-5-carbonyl}-2-azabicyclo[2.2.1]heptan-7-amine] | 6.03
COc1cc(C(=O)N2C[C@H]3CC[C@@H]2[C@@H]3N)cc2nc(-c3cc4ccccc4n3CC3CC3)n(CC3CN(C(=O)c4ccc(-c5ccc(O)cc5)cc4)C3)c12 [Example 149, 4′-[3-({5-[(1R,4R,7R)-7-amino-2-azabicyclo[2.2.1]heptane-2-carbonyl]-2-[1-(cyclopropylmethyl)-1H-indol-2-yl]-7-methoxy-1H-1,3-benzodiazol-1-yl}methyl)azetidine-1-carbonyl]-[1,1′-biphenyl]-4-ol] | 7.72
COc1cc(C(=O)N2C[C@H]3CC[C@@H]2[C@@H]3N)cc2nc(-c3cc4cccnc4n3C)n(C[C@H]3CCN(c4ccnc(C)n4)C3)c12 [Example 213, (1R,4R,7R)-2-(7-methoxy-2-{1-methyl-1H-pyrrolo[2,3-b]pyridin-2-yl}-1-{[(3S)-1-(2-methylpyrimidin-4-yl)pyrrolidin-3-yl]methyl}-1H-1,3-benzodiazole-5-carbonyl)-2-azabicyclo[2.2.1]heptan-7-amine] | 7.00
COc1cc(C(=O)N2C[C@H]3CC[C@@H]2[C@@H]3N)cc2nc(-c3cc4cccnc4n3CC3CC3)n(CC3CN(C(=O)CNC(C)=O)C3)c12 [Example 186, N-{2-[3-({5-[(1R,4R,7R)-7-amino-2-azabicyclo[2.2.1]heptane-2-carbonyl]-2-[1-(cyclopropylmethyl)-1H-pyrrolo[2,3-b]pyridin-2-yl]-7-methoxy-1H-1,3-benzodiazol-1-yl}methyl)azetidin-1-yl]-2-oxoethyl}acetamide] | 6.50

Now from value to compound:

pIC50 | Structure (SMILES)
6.75 | COc1cc(C(=O)N2C[C@H]3CC[C@@H]2[C@@H]3N)cc2nc(-c3cc4ccccc4n3CC3CC3)n(Cc3ccncc3)c12 [Example 272, (1R,4R,7R)-2-(2-[1-(cyclopropylmethyl)-1H-indol-2-yl]-7-methoxy-1-[(pyridin-4-yl)methyl]-1H-1,3-benzodiazole-5-carbonyl}-2-azabicyclo[2.2.1]heptan-7-amine]
7.55 | COc1cc(-n2cc(Cn3c(-c4cc5ccccc5n4CC4CC4)nc4cc(C(=O)N5CC6CCC5[C@@H]6N)cc(OC)c43)cn2)ccn1 (stereo partly drawn) [Example 366, (7R)-2-{2-[1-(cyclopropylmethyl)-1H-indol-2-yl]-7-methoxy-1-{[1-(2-methoxypyridin-4-yl)-1H-pyrazol-4-yl]methyl}-1H-1,3-benzodiazole-5-carbonyl}-2-azabicyclo[2.2.1]heptan-7-amine]
7.68 | COc1cc(C(=O)N2C[C@H]3CC[C@@H]2[C@@H]3N)cc2nc(-c3cc4cccnc4n3CC3CC3)n(CC3CN(C(=O)c4ccccc4)C3)c12 [Example 88, (1R,4R,7R)-2-{1-[(1-benzoylazetidin-3-yl)methyl]-2-[1-(cyclopropylmethyl)-1H-pyrrolo[2,3-b]pyridin-2-yl]-7-methoxy-1H-1,3-benzodiazole-5-carbonyl}-2-azabicyclo[2.2.1]heptan-7-amine]
7.74 | COc1cc(C(=O)N2CC3CCC2[C@@H]3N)cc2nc(-c3cc4ccccc4n3CC3CC3)n(C[C@H]3CCN(c4ccnc(C#N)n4)C3)c12 (stereo partly drawn) [Example 223, 4-[(3S)-3-({5-[(1R,4R,7R)-7-amino-2-azabicyclo[2.2.1]heptane-2-carbonyl]-2-[1-(cyc1opropylmethyl)-1H-indo1-2-yl]-7-methoxy-1H-1,3-benzodiazo1-1-yl}methyl)pyrrolidin-1-yl]pyrimidine-2-carbonitrile]
7.80 | N[C@@H]1[C@@H]2CC[C@H]1N(C(=O)c1cc(F)c3c(c1)nc(-c1cc4ccccc4n1CC1CC1)n3CC1CN(C(=O)c3ccncc3)C1)C2 [Example 95, (1R,4R,7R)-2-{2-[1-(cyclopropylmethyl)-1H-indol-2-yl]-7-fluoro-1-{[1-(pyridine-4-carbonyl)azetidin-3-yl]methyl}-1H-1,3-benzodiazole-5-carbonyl}-2-azabicyclo[2.2.1]heptan-7-amine]
7.26 | CCn1cc(Cn2c(-c3cc4cccnc4n3CC3CC3)nc3cc(C(=O)N4CC5CCC4[C@@H]5N)cc(OC)c32)cn1 (stereo partly drawn) [Example 489, (7R)-2-{2-[1-(cyclopropylmethyl)-1H-pyrrolo[2,3-b]pyridin-2-yl]-1-[(1-ethyl-1H-pyrazol-4-yl)methyl]-7-methoxy-1H-1,3-benzodiazole-5-carbonyl}-2-azabicyclo[2.2.1]heptan-7-amine]
6.20 | COc1cc(C(=O)N2C[C@H]3CC[C@@H]2[C@@H]3N)cc2nc(-c3cc4cccnc4n3CC3CC3)n(CC3CN(c4ccccc4C(C)=O)C3)c12 [Example 85, 1-{2-[3-({5-[(1R,4R,7R)-7-amino-2-azabicyclo[2.2.1]heptane-2-carbonyl]-2-[1-(cyclopropylmethyl)-1H-pyrrolo[2,3-b]pyridin-2-yl]-7-methoxy-1H-1,3-benzodiazol-1-yl}methyl)azetidin-1-yl]phenyl}ethan-1-one]
7.48 | COc1cc(C(=O)N2C[C@H]3CC[C@@H]2[C@@H]3N)cc2nc(-c3cc4cccnc4n3CC3CC3)n(Cc3cnn(C)c3)c12 [Example 243, (1R,4R,7R)-2-{2-[1-(cyclopropylmethyl)-1H-pyrrolo[2,3-b]pyridin-2-yl]-7-methoxy-1-[(1-methyl-1H-pyrazol-4-yl)methyl]-1H-1,3-benzodiazole-5-carbonyl}-2-azabicyclo[2.2.1]heptan-7-amine]
7.60 | COc1cc(C(=O)N2CC3CCC2[C@@H]3N)cc2nc(-c3cc4ccccc4n3CC3CC3)n(CC3CN(C(=O)c4ccnc(Cl)c4)C3)c12 (stereo partly drawn) [Example 424, (7R)-2-(1-{[1-(2-chloropyridine-4-carbonyl)azetidin-3-yl]methyl}-2-[1-(cyclopropylmethyl)-1H-indol-2-yl]-7-methoxy-1H-1,3-benzodiazole-5-carbonyl)-2-azabicyclo[2.2.1]heptan-7-amine]
